Measured values reported in patent publication US10907212B2, “Inhibitors of cell adhesion” (Regents of the University of Minnesota, priority 2016, dated 2021).
“Also recorded” adds a separate entry of the source. Where no end group is shown, it is not given here.

system: nectin 4 protein on NIH:OVCAR-5 cells; test: Effect of peptides on anti-Nectin-4 antibody binding to cells as determined by flow cytometry; format: cell-based, human; details: Run Five; 150 μg/mL peptide, 30 minutes; Control 5 = 17,768.90
Procedure: Confluent monolayers of cells were detached from 75 cm^2 tissue culture flasks using Accutase cell dissociation buffer (Innovative Cell Technologies, San Diego, Calif.), washed, and labeled with mouse IgG or mAbs against Nectin-4 or Nectin-1 (2.5 μg/10^6 cells) in Flow Buffer [phosphate buffered saline (PBS) containing 2.5% newborn calf serum and 0.02% sodium azide] for 30 min at 4° C.. Cells were washed and incubated with goat anti-mouse IgG F(ab′)2 (Jackson ImmunoResearch, West Grove, Pa.), then washed again and incubated with streptavidin-allophycocyanin conjugate (Jackson ImmunoResearch, West Grove, Pa.) for 30 min each. Cells were washed and fixed in Flow Buffer containing 1% formaldehyde and analyzed in the University of Minnesota Flow Cytometry Resource with a BD Accuri™ C6 flow cytometer (BD Biosciences, San Jose, Calif.) using the Accuri™ software.
Briefly, NIH:OVCAR-5 cells that natively express a moderate amount of nectin 4 protein were incubated for 30 minutes in 150 μg/mL of soluble peptide in DMSO. After incubation, the cells were washed, and then triple antibody stained using mouse anti-nectin 4 (or IgG control) primary antibody, biotinylated goat anti-mouse secondary antibody, and streptavidin APC tertiary antibody. Finally, utilizing the University of Minnesota flow core's Accuri C6 flow cytometer, the relative antibody binding affinity for control and peptide-treated samples was quantitated and compared. Data was collected for each of the 57 peptides generated.

Row | Substance | N4 MFI
1 | NYSLAGTYICEATN-NH2 (listed as Homo sapiens) [Peptide 53] | 40,909.47
2 | TNPIGTRSGQVEVN-NH2 (listed as Homo sapiens) [Peptide 54] | 19,706.27
3 | VNITEFPYTPSPPEHGRRA-NH2 (listed as Homo sapiens) [Peptide 55] | 19,498.24
4 | WTTLNGSLPKGVEA-NH2 (listed as Homo sapiens) [Peptide 51] | 14,202.55

same assay, conditions: Run Five; Control 5 = 2.142155332

Row | Substance | N4 MFI/IgG MFI
5 | NYSLAGTYICEATN-NH2 (listed as Homo sapiens) [Peptide 53] | 1.37
6 | TNPIGTRSGQVEVN-NH2 (listed as Homo sapiens) [Peptide 54] | 2.253
7 | VNITEFPYTPSPPEHGRRA-NH2 (listed as Homo sapiens) [Peptide 55] | 2.29
8 | WTTLNGSLPKGVEA-NH2 (listed as Homo sapiens) [Peptide 51] | 1.539

same assay, conditions: Run Five; IgG control primary antibody; Control 5 = 8,294.87

Row | Substance | IgG MFI
9 | NYSLAGTYICEATN-NH2 (listed as Homo sapiens) [Peptide 53] | 29,864.47
10 | TNPIGTRSGQVEVN-NH2 (listed as Homo sapiens) [Peptide 54] | 8,747.26
11 | VNITEFPYTPSPPEHGRRA-NH2 (listed as Homo sapiens) [Peptide 55] | 8,512.75
12 | WTTLNGSLPKGVEA-NH2 (listed as Homo sapiens) [Peptide 51] | 9,230.44

same assay, conditions: Run Five; antibody binding relative to Control 5 = 100

Row | Substance | nectin-4 antibody binding, percent of control
13 | NYSLAGTYICEATN-NH2 (listed as Homo sapiens) [Peptide 53] | 116.6
14 | TNPIGTRSGQVEVN-NH2 (listed as Homo sapiens) [Peptide 54] | 115.7
15 | VNITEFPYTPSPPEHGRRA-NH2 (listed as Homo sapiens) [Peptide 55] | 116
16 | WTTLNGSLPKGVEA-NH2 (listed as Homo sapiens) [Peptide 51] | 52.48

same assay, conditions: Run Four; 150 μg/mL peptide, 30 minutes; Control 4 = 9,631.58

Row | Substance | N4 MFI
17 | ACIVNYHMDRFKES-NH2 (listed as Homo sapiens) [Peptide 46] | 10,569.90
18 | CKADANPPATEYHWT-NH2 (listed as Homo sapiens) [Peptide 50] | 11,341.38
19 | NGKPPSVVSWETRL-NH2 (listed as Homo sapiens) [Peptide 42] | 9,416.50

same assay, conditions: Run Four; Control 4 = 9.387504873

Row | Substance | N4 MFI/IgG MFI
20 | ACIVNYHMDRFKES-NH2 (listed as Homo sapiens) [Peptide 46] | 6.623
21 | CKADANPPATEYHWT-NH2 (listed as Homo sapiens) [Peptide 50] | 4.306
22 | NGKPPSVVSWETRL-NH2 (listed as Homo sapiens) [Peptide 42] | 7.497

same assay, conditions: Run Four; IgG control primary antibody; Control 4 = 1,026

Row | Substance | IgG MFI
23 | ACIVNYHMDRFKES-NH2 (listed as Homo sapiens) [Peptide 46] | 1596
24 | CKADANPPATEYHWT-NH2 (listed as Homo sapiens) [Peptide 50] | 2634
25 | NGKPPSVVSWETRL-NH2 (listed as Homo sapiens) [Peptide 42] | 1256

same assay, conditions: Run Four; antibody binding relative to Control 4 = 100

Row | Substance | nectin-4 antibody binding, percent of control
26 | ACIVNYHMDRFKES-NH2 (listed as Homo sapiens) [Peptide 46] | 104.3
27 | CKADANPPATEYHWT-NH2 (listed as Homo sapiens) [Peptide 50] | 101.2
28 | NGKPPSVVSWETRL-NH2 (listed as Homo sapiens) [Peptide 42] | 94.83

same assay, conditions: Run One; 150 μg/mL peptide, 30 minutes; Control 1 = 15,015

Row | Substance | N4 MFI
29 | AEASVRGLEDQNLW-NH2 (listed as Homo sapiens) [Peptide 19] | 7,278
30 | AWARVDAGEGAQEL-NH2 (listed as Homo sapiens) [Peptide 4] | 8,687
31 | GQGLTLAASCTAEG-NH2 (listed as Homo sapiens) [Peptide 12] | 11,052

same assay, conditions: Run One; 150 μg/mL peptide, 30 minutes; IgG control primary antibody; Control 1 = 1,670

Row | Substance | IgG MFI
32 | AEASVRGLEDQNLW-NH2 (listed as Homo sapiens) [Peptide 19] | 2,254
33 | AWARVDAGEGAQEL-NH2 (listed as Homo sapiens) [Peptide 4] | 2,199
34 | GQGLTLAASCTAEG-NH2 (listed as Homo sapiens) [Peptide 12] | 2,827

same assay, conditions: Run One; Control 1 = 8.99

Row | Substance | N4 MFI/IgG MFI
35 | AEASVRGLEDQNLW-NH2 (listed as Homo sapiens) [Peptide 19] | 3.23
36 | AWARVDAGEGAQEL-NH2 (listed as Homo sapiens) [Peptide 4] | 3.95
37 | GQGLTLAASCTAEG-NH2 (listed as Homo sapiens) [Peptide 12] | 3.91

same assay, conditions: Run One; antibody binding relative to Control 1 = 100.00

Row | Substance | nectin-4 antibody binding, percent of control
38 | AEASVRGLEDQNLW-NH2 (listed as Homo sapiens) [Peptide 19] | 37.65
39 | AWARVDAGEGAQEL-NH2 (listed as Homo sapiens) [Peptide 4] | 48.62
40 | GQGLTLAASCTAEG-NH2 (listed as Homo sapiens) [Peptide 12] | 61.63

same assay, conditions: flow cytometry; 150 μg/mL peptide

Row | Substance | nectin-4 antibody binding compared to untreated control cells (in words)
41 | AEASVRGLEDQNLW-NH2 (listed as Homo sapiens) [Peptide 19] | reduction in nectin-4 antibody binding; also recorded: reduced antibody binding
42 | AWARVDAGEGAQEL-NH2 (listed as Homo sapiens) [Peptide 4] | reduction in nectin-4 antibody binding
43 | WTTLNGSLPKGVEA-NH2 (listed as Homo sapiens) [Peptide 51] | reduction in nectin-4 antibody binding

same assay, conditions: summary table; Nectin-4 antibody binding relative to control = 100

Row | Substance | Flow binding
44 | AEASVRGLEDQNLW-NH2 (listed as Homo sapiens) [Peptide 19] | 38%
45 | AWARVDAGEGAQEL-NH2 (listed as Homo sapiens) [Peptide 4] | 49%
46 | WTTLNGSLPKGVEA-NH2 (listed as Homo sapiens) [Peptide 51] | 53%

system: ovarian cancer cell aggregation and spheroid formation; test: Spheroid assay for peptides (visual scale +1 to +5); format: cell-based, human; details: not given
Procedure: Spheroids were formed from the NIH:OVCAR5 cell lines described above using the liquid overlay method. One milliliter of a single cell suspension was seeded at a concentration of 50,000 cells/ml in OptiMEM® media, into 24-well tissue culture plates coated with 0.5% Seakem agarose (in complete RPMI-1640). Plates were incubated at 37° C. in a humidified incubator with 5% CO2. At various time points up to 5 days, the plates were removed from the incubator and the spheroids were photographed with a Nikon CoolPix digital camera mounted on an Olympus CK2 inverted microscope with a 4× objective. The size of the spheroids was determined using the measure tool in Adobe Photoshop. The largest spheroids were quantified (20-90 spheroids/well), in a minimum of 8 wells, for a total of >300 spheroids per cell type.
The clinical relevance is that by blocking the formation of spheroids, the cells will be more sensitive to chemotherapy (which targets the single cells that proliferate more rapidly than spheroids).
The spheroid assay for peptides 1-30 were scored using a visual scale of +1 to +5. The controls were scored at +2 (24 hrs) and +4 (48 hrs). […] It may be harder to visually assess the size at 24 hours, since the spheroids are relatively small, but and perhaps some of the peptides are affecting cell division, and that is why the spheroids are smaller than the controls at 48 hours, but not 24 hrs (this can be easily assayed with an MTT assay).

Row | Substance | spheroid size (in words)
47 | AEASVRGLEDQNLW-NH2 (listed as Homo sapiens) [Peptide 19] | reduced spheroid size

same assay, conditions: 24 hrs; visual scale of +1 to +5; Control = 2

Row | Substance | Spheroid-24
48 | AEASVRGLEDQNLW-NH2 (listed as Homo sapiens) [Peptide 19] | 1
49 | AWARVDAGEGAQEL-NH2 (listed as Homo sapiens) [Peptide 4] | 1

same assay, conditions: 48 hrs; visual scale of +1 to +5; Control = 4

Row | Substance | Spheroid-48
50 | AEASVRGLEDQNLW-NH2 (listed as Homo sapiens) [Peptide 19] | 2
51 | AWARVDAGEGAQEL-NH2 (listed as Homo sapiens) [Peptide 4] | 2
